From patent US20250090573A1, “COMPOSITIONS FOR DELIVERING NITRIC OXIDE AND FLUORIDE AND METHODS FOR MAKING AND USING THE SAME” (University of Georgia Research Foundation, Inc., priority 2022, published 2025) come the findings set out here.

In one series the test system is hFOB 1.19. Briefly: Cellular cytotoxicity of GSNO and precursor sol materials (CCK-8). The series is classed as cell-based, human. The following applies: hFOB 1.19 cells, direct contact exposure. On the procedure:
(§1) The cell lines HGF and hFOB 1.19 were cultured for cytocompatibility assessments. HGF cells were cultured in fibroblast basal medium supplemented with the manufacturer's recommended growth kit (2% fetal bovine serum, 50 μg/mL ascorbic acid, 5 μg/mL rh insulin, […] hydrocortisone hemisuccinate, 5 ng/mL rh FGF b, and 7.5 mM L-glutamine) and penicillin-streptomycin (10 units/mL and 10 μg/mL, respectively). hFOB 1.19 cells were maintained in a 1:1 mixture of Ham's F12 Medium and Dulbecco's Modified Eagle's Medium supplemented with L-glutamine (2.5 mM), fetal bovine serum (10%) and G418 (0.3 mg/mL). Both cell types were incubated at 37° C. in a 5% CO2 humified atmosphere. Medium was replaced every 48 h and both cell lines were subcultured once monolayers were 80% confluent. Cells were detached from the flask surface via enzymatic treatment with 0.05% trypsin and 5 mM EDTA for 5 min, with isolation of cell pellets via centrifugation at 200 RCF for 5 min.
(§2) The cellular cytotoxicity of GSNO against HGF and hFOB 1.19 cells was tested over 24 h direct contact experiments. […] A separate set of wells containing only media and the dye (n=5) were also prepared to account for background readings. The absorbance of each well was measured at 450 nm, adjusted against the average absorbance reading of the wells with only media. […]

A short description of series [1]: GSNO/NO loading by chemiluminescence NO analyzer (Cu1+ depletion). The note with it: hydrogel precursor sol, aqueous with cosolvent or surfactant or cyclodextrin; read-out: GSNO sol concentration after which solubility is incomplete. The series is classed as physicochemical.
The subject of a further series is HGF. The series is classed as cell-based. The note with it: human, 24 h. On the procedure: as §1, §2

Where only a bound is given, the exact number is not on record here.

With `N[C@@H](CCC(=O)N[C@@H](CSN=O)C(=O)NCC(=O)O)C(=O)O` [GSNO, S-Nitrosoglutathione], the “GSNO treatment eliciting cytotoxic response” value was approximately 400 µg/mL with hFOB 1.19 and “greater than 100 μg/mL” in the series on HGF. The solubility in series [1] is not above 30 mg/mL.
